Each structure is given as a SMILES string. The source made the active and inactive calls. No cut-off for these calls is given here.

Data set [1] deals with Mus musculus. The experiment in a line: Upregulation of 5-HT level in mouse at 10 mg/kg in presence of isosorbide mononitrate. It counts as functional, organism-based.
The nature of data set [2]: Cytotoxicity against human L02 cells incubated for 24 hrs by MTT assay. It counts as toxicity, cell-based. In general terms: Tetrazolium assays rely on reduction of a dye to a coloured formazan, in cell work by metabolically active cells.
A short description of data set [3]: Cytotoxicity against human SH-SY5Y cells incubated for 24 hrs by MTT assay. It counts as toxicity, cell-based.
The nature of data set [4]: Cytotoxicity against rat PC-12 cells incubated for 24 hrs by MTT assay. It counts as toxicity, cell-based.
A further data set deals with PC-12. Nature of the data set: Neuroprotective activity against corticosterone-induced cell injury in rat PC-12 cells assessed as increase in cell viability at 0.1 to 1 uM incubated for 24 hrs by CCK8 assay. It counts as functional, cell-based. The settings on record: dose 0.1-1 µM.
The test system of data set [5] is Mus musculus. Nature of the data set: Upregulation of 5-HT level in mouse at 10 mg/kg in presence of oxoisoaporphines. It counts as functional, organism-based.
Data set [6] has as its system Danio rerio. The experiment in a line: Antidepressant activity in reserpine-induced depressive zebrafish model assessed as increase in total distance traveled at 1 uM preadministered with reserpine for 40 mins followed by compound administration and measured after 7 days by open field test. It counts as functional, organism-based. Conditions: time 7.0 day.
The test system of data set [7] is Danio rerio. Nature of the data set: Antidepressant activity in reserpine-induced depressive zebrafish model assessed as increase in speed of movement at 1 uM preadministered with reserpine for 40 mins followed by compound administration and measured after 7 days by open field test. It counts as functional, organism-based. The settings on record: time 7.0 day.
For data set [8], the system named is Danio rerio. Nature of the data set: Antidepressant activity in reserpine-induced depressive zebrafish model assessed as reduction in immobility time at 1 uM preadministered with reserpine for 40 mins followed by compound administration and measured after 7 days by open field test. It counts as functional, organism-based. The settings on record: time 7.0 day.

For data set [9], the system named is Danio rerio. The experiment in a line: Antidepressant activity in reserpine-induced depressive zebrafish model assessed as increase in total distance traveled at 1 uM preadministered with reserpine for 40 mins followed by compound administration and measured after 7 days by novel tank test. It counts as functional, organism-based. Conditions: time 7.0 day.
Data set [10] relates to Danio rerio. The experiment in a line: Antidepressant activity in reserpine-induced depressive zebrafish model assessed as increase in speed of movement at 1 uM preadministered with reserpine for 40 mins followed by compound administration and measured after 7 days by novel tank test. It counts as functional, organism-based. Conditions: time 7.0 day.
The test system of data set [11] is Danio rerio. The experiment in a line: Antidepressant activity in reserpine-induced depressive zebrafish model assessed as increase in time spend in upper part at 1 uM preadministered with reserpine for 40 mins followed by compound administration and measured after 7 days by novel tank test. The settings on record: time 7.0 day. It counts as functional, organism-based.

Data set [12] deals with Mus musculus. Nature of the data set: Antidepressant activity in chronic unpredictable mild stress induced depressive C57 mouse model assessed as increase in total distance traveled at 10 mg/kg administered continuously for 2 weeks post 5 weeks of chronic unpredictable mild stress by open field test. It counts as functional, organism-based.
Data set [13] relates to Mus musculus. The experiment in a line: Antidepressant activity in chronic unpredictable mild stress induced depressive C57 mouse model assessed as increase in movement at 10 mg/kg administered continuously for 2 weeks post 5 weeks of chronic unpredictable mild stress by open field test. It counts as functional, organism-based.
Data set [14] deals with Mus musculus. The experiment in a line: Antidepressant activity in reserpine induced depressive mouse model assessed as 5-HT level in brain at 10 mg/kg preadministered with reserpine for 3 days followed by compound addition from day 4 to 10 by LC-MS analysis (reference value: 186.46 ng/ml). It counts as functional. The settings on record: time 7 day.

Turning to `O=C1c2ccccc2-c2nccc3cccc1c23`, in the data set with Mus musculus [1], the outcome was Active.

The IC50 is the midpoint of a concentration-inhibition curve. For `O=C1c2ccccc2-c2nccc3cc(OCCCCOc4no[n+]([O-])c4S(=O)(=O)c4ccccc4)cc1c23`, the figures for the IC50 at 24 h in data set [2], in data set [3] and in [4] were greater than 100 µM, greater than 100 µM and greater than 10 µM, respectively. For the same compound, in the data set on PC-12, the result was inactive.

For `O=C1c2ccccc2-c2nccc3cc(OCCCCO[N+](=O)[O-])cc1c23`, the IC50 at 24 h in [2] was greater than 100 µM; in data set [3] it was greater than 100 µM; in data set [4], greater than 10 µM. In addition, in the data set on PC-12, the result was Active.

For `O=C1c2ccccc2-c2nccc3cc(OCCCOc4no[n+]([O-])c4S(=O)(=O)c4ccccc4)cc1c23`, the IC50 at 24 h in [2] was greater than 100 µM; in data set [3] it was greater than 100 µM; in [4], greater than 10 µM. Besides, the result in the data set with PC-12 was inactive.

Turning to `O=C1c2ccccc2-c2nccc3cc(OCCCCCO[N+](=O)[O-])cc1c23`, the half-maximal inhibitory concentration (IC50) at 24 h is greater than 100 µM in [2], greater than 100 µM in [3] and greater than 10 µM in data set [4]. In addition, the result in the data set with PC-12 was Active.

`O=[N+]([O-])O[C@@H]1CO[C@H]2[C@@H]1OC[C@@H]2O`: the outcome in the data set on Mus musculus [5] was Active.

Consider `O=C1c2ccccc2-c2nccc3cc(OCCO[N+](=O)[O-])cc1c23`, for which the IC50 at 24 h in [2] was greater than 100 µM; in data set [3] it was greater than 100 µM; in data set [4], greater than 10 µM. Further, the outcome in the data set with PC-12 was Active.

Consider `CNCCC(Oc1ccc(C(F)(F)F)cc1)c1ccccc1` (configuration not stated) [FLUOXETINE], for which the outcome in the data set with Danio rerio [6], in the data set on Danio rerio [7], in the data set on Danio rerio [8], in the data set on Danio rerio [9], in the data set with Danio rerio [10] and in the data set on Danio rerio [11] was Active. The outcome in the data set on Mus musculus [12] and with Mus musculus [13] was Active. Besides, the Activity in the data set with Mus musculus [14] stood at 223.45 ng/mL.

Regarding `O=C1c2ccccc2-c2nccc3cc(OCCCCCOc4no[n+]([O-])c4S(=O)(=O)c4ccccc4)cc1c23`, the half-maximal inhibitory concentration (IC50) at 24 h is greater than 100 µM in data set [2], greater than 100 µM in [3] and greater than 10 µM in data set [4]. For the same compound, the result in the data set on PC-12 was inactive.

As to `O=C1c2ccccc2-c2nccc3cc(OCCOc4no[n+]([O-])c4S(=O)(=O)c4ccccc4)cc1c23`, the results for the IC50 at 24 h in data set [2], in [3] and in [4] were greater than 100 µM, greater than 100 µM and greater than 10 µM, respectively. For the same compound, the result with PC-12 was inactive.

On to `O=C1c2ccccc2-c2nccc3cc(OCCCCCCO[N+](=O)[O-])cc1c23`, for which the IC50 at 24 h is greater than 100 µM in data set [2], greater than 100 µM in data set [3] and greater than 10 µM in data set [4]. For the same compound, the result with PC-12 was Active.

`O=C1c2ccccc2-c2nccc3cc(OCCCCCCOc4no[n+]([O-])c4S(=O)(=O)c4ccccc4)cc1c23`: the figures for the IC50 at 24 h in [2], in data set [3] and in data set [4] were greater than 100 µM, greater than 100 µM and greater than 10 µM, respectively. The outcome in the data set with PC-12 was inactive.

Source of the values: ChEMBL document CHEMBL5584347, “Development of Nitric Oxide Releasing Oxoisoaporphines with Antidepressant Activities by Simultaneously Regulating MAO-A and SERT” (J Med Chem, 2024).
